Assay results as given in patent US11535630B2, “Apelin receptor (APJ) agonists and uses thereof” (Research Triangle Institute, priority 2015, dated 2022).

Biological target: T1, apelin receptor (APJ) (Homo sapiens, UniProt P35414)
T1 sequence (P35414 1-380): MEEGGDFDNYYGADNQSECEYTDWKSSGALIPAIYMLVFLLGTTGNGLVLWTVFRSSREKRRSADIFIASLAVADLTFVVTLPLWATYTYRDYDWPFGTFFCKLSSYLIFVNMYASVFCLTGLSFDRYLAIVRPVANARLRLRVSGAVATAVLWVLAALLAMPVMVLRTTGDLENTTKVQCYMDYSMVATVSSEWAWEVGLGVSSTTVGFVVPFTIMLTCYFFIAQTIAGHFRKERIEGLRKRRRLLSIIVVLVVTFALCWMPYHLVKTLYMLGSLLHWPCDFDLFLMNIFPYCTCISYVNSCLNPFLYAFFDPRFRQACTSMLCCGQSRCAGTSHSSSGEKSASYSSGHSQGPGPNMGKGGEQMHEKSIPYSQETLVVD
Experiment: In vitro apelin agonist activity (methods of Giddings et al., Apelin-13 as positive control)
Format: cell-based
Settings: EC50 (nM) Ave, in vitro apelin agonist activity, methods of Giddings et al., Apelin-13 as positive control
Text: Characterization of the Apelin Agonist Activity of the Compounds
1:39-47, the contents of which are hereby incorporated by reference in its entirety. Using the methods described in Giddings et al. and Apelin-13 as a positive control.

Row | SMILES | EC50
1 | O=C(C[C@H](CN1CCC(F)(F)C1)NC(=O)c1cc(-c2ccccc2C(F)(F)F)n(C2CCCC2)n1)NC1CCC1 [compound 523, (3R)-N-cyclobutyl-3-({1-cyclopentyl-5-[2-(trifluoromethyl)phenyl]-1H-pyrazol-3-yl}formamido)-4-(3,3-difluoropyrrolidin-1-yl)butanamide] | 1210 nM

Same assay, conditions: in vitro apelin agonist activity, methods of Giddings et al., Apelin-13 as positive control; read-out: EC50 (nM) Ave

Row | SMILES | EC50
2 | COc1cccc(OC)c1-c1cc(C(=O)N[C@@H](CCN2CCN(C)CC2)CC(=O)OC(C)(C)C)nn1C1CCCC1 [compound 304, tert-butyl (3S)-3-{[1-cyclopentyl-5-(2,6-dimethoxyphenyl)-1H-pyrazol-3-yl]formamido}-5-(4-methylpiperazin-1-yl)pentanoate] | > 10000 nM
3 | O=C(C[C@H](CCN1CCCCC1)NC(=O)c1cc(-c2ccccc2OC(F)(F)F)n(C2CCCC2)n1)NC1CCC1 [compound 359, (3S)-N-cyclobutyl-3-({1-cyclopentyl-5-[2-(trifluoromethoxy)phenyl]-1H-pyrazol-3-yl]formamido)-5-(piperidin-1-yl)pentanamide] | 271 nM
4 | C[C@@H]1CC(F)(F)CN1CC[C@@H](CC(=O)O)NC(=O)c1cc(-c2ccccc2C(C)(F)F)n(C2CCCC2)n1 [compound 605, (3S)-3-({1-cyclopentyl-5-[2-(1,1-difluoroethyl)phenyl]-1H-pyrazol-3-yl]formamido)-5-[(2R)-4,4-difluoro-2-methylpyrrolidin-1-yl]pentanoic acid] | 11 nM
5 | COc1cccc(OC)c1-c1cc(C(=O)N[C@@H](CCN2CCOCC2)CC(=O)OC(C)(C)C)nn1C1CCCC1 [compound 303, tert-butyl (3S)-3-{[1-cyclopentyl-5-(2,6-dimethoxyphenyl)-1H-pyrazol-3-yl]formamido}-5-(morpholin-4-yl)pentanoate] | > 10000 nM
6 | O=C(C[C@H](CCN1CCCC(F)(F)C1)NC(=O)c1cc(-c2ccccc2C(F)(F)F)n(C2CCCC2)n1)NC1CCC1 [compound 425, (3S)-N-cyclobutyl-3-({1-cyclopentyl-5-[2-(trifluoromethyl)phenyl]-1H-pyrazol-3-yl}formamido)-5-(3,3-difluoropiperidin-1-yl)pentanamide] | 10.9 nM
7 | COc1cccc(OC)c1-c1cc(C(=O)N[C@@H](CCN2CCOCC2)CC(=O)NC2CCC2)nn1C1CCCC1 [compound 312, (3S)-N-cyclobutyl-3-{[1-cyclopentyl-5-(2,6-dimethoxyphenyl)-1H-pyrazol-3-yl]formamido}-5-(morpholin-4-yl)pentanamide] | 343 nM
8 | CC(F)(F)c1ccccc1-c1cc(C(=O)N[C@@H](CCN2C[C@H](F)[C@@H](F)C2)CC(=O)O)nn1C1CCCC1 (stereo in doubt) [compound 594, (3S)-3-({1-cyclopentyl-5-[2-(1,1-difluoroethyl)phenyl]-1H-pyrazol-3-yl}formamido)-5-[trans-3,4-difluoropyrrolidin-1-yl]pentanoic acid] | 44 nM
9 | NNC(=O)C[C@H](CCN1CCCC(F)(F)C1)NC(=O)c1cc(-c2ccccc2Cl)n(C2CCCC2)n1 [compound 465, 5-(2-chlorophenyl)-1-cyclopentyl-N-[(2S)-4-(3,3-difluoropiperidin-1-yl)-1-(hydrazinecarbonyl)butan-2-yl]-1H-pyrazole-3-carboxamide] | 191 nM
10 | COc1cccc(OC)c1-c1cc(C(=O)N[C@@H](CCC2CCN(C)CC2)CC(=O)NC2CCC2)nn1C1CCCC1 [compound 421, (3S)-N-cyclobutyl-3-{[1-cyclopentyl-5-(2,6-dimethoxyphenyl)-1H-pyrazol-3-yl]formamido}-5-(1-methylpiperidin-4-yl)pentanamide] | 3310 nM
11 | CC(C)CN(C)CC[C@@H](CC(=O)NC1CCC1)NC(=O)c1cc(-c2ccccc2C(F)(F)F)n(C2CCCC2)n1 [compound 493, (3S)-N-cyclobutyl-3-({1-cyclopentyl-5-[2-(trifluoromethyl)phenyl]-1H-pyrazol-3-yl}formamido)-5-[methyl(2-methylpropyl)amino]pentanamide] | 24 nM
12 | CCN(C(=O)c1cc(-c2ccccc2OC(F)(F)F)n(C2CCCC2)n1)[C@@H](CCN1CCCCC1)CC(=O)NC1CCC1 [compound 344, (3S)-N-cyclobutyl-3-(1-{1-cyclopentyl-5-[2-(trifluoromethoxy)phenyl]-1H-pyrazol-3-yl}-N-ethylformamido)-5-(piperidin-1-yl)pentanamide] | 2370 nM
13 | CN(CC[C@@H](CC(=O)NC1CCC1)NC(=O)c1cc(-c2ccccc2C(F)(F)F)n(C2CCCC2)n1)C1CCCCC1 [compound 483] | 14 nM
14 | O=C(CCNC(=O)c1cc(-c2ccccc2C(F)(F)F)n(C2CCCC2)n1)NCc1ccccc1 [compound 442, N-benzyl-3-({1-cyclopentyl-5-[2-(trifluoromethyl)phenyl]-1H-pyrazol-3-yl}formamido)propanamide] | > 10000 nM
15 | O=C(O)C[C@H](CCN1CCCC(F)(F)C1)NC(=O)c1cc(-c2ccc(F)cc2C(F)(F)F)n(C2CCCC2)n1 [compound 554] | 126 nM
16 | COc1cccc(OC)c1-c1cc(C(=O)N[C@H](CC#N)CCc2ccccc2)nn1C1CCCC1 [compound 391, N-[(2S)-1-cyano-4-phenylbutan-2-yl]-1-cyclopentyl-5-(2,6-dimethoxyphenyl)-1H-pyrazole-3-carboxamide] | 6340 nM
17 | CCCN(CCC)CC[C@@H](CC(=O)NC1CCC1)NC(=O)c1cc(-c2ccccc2C(F)(F)F)n(C2CCCC2)n1 [compound 492, (3S)-N-cyclobutyl-3-({1-cyclopentyl-5-[2-(trifluoromethyl)phenyl]-1H-pyrazol-3-yl}formamido)-5-(dipropylamino)pentanamide] | 36 nM
18 | COc1cccc(OC)c1-c1cc(C(=O)N[C@@H](CCc2ccccc2)C(=O)NCc2nnn[nH]2)nn1C1CCCC1 [compound 387, (2S)-2-{[1-cyclopentyl-5-(2,6-dimethoxyphenyl)-1H-pyrazol-3-yl]formamido}-4-phenyl-N-(1H-1,2,3,4-tetrazol-5-ylmethyl)butanamide] | 8720 nM
19 | COc1cccc(OC)c1-c1cc(C(=O)N[C@@H](CCc2ccccc2)CC(=O)NCc2nnn[nH]2)nn1C1CCCC1 [compound 383, (3S)-3-{[1-cyclopentyl-5-(2,6-dimethoxyphenyl)-1H-pyrazol-3-yl]formamido}-5-phenyl-N-(1H-1,2,3,4-tetrazol-5-ylmethyl)pentanamide] | 5180 nM
20 | COc1ccccc1-c1cc(C(=O)N[C@@H](CCN2CCCCC2)CC(=O)NC2CCC2)nn1C1CCCC1 [compound 361, (3S)-N-cyclobutyl-3-{[1-cyclopentyl-5-(2-methoxyphenyl)-1H-pyrazol-3-yl]formamido}-5-(piperidin-1-yl)pentanamide] | 234 nM
21 | O=C(C[C@H](CCN1CCCCC1)NC(=O)c1cc(-c2cncnc2)n(C2CCCC2)n1)NC1CCC1 [compound 368, (3S)-N-cyclobutyl-3-{[1-cyclopentyl-5-(pyrimidin-5-yl)-1H-pyrazol-3-yl]formamido}-5-(piperidin-1-yl)pentanamide] | > 10000 nM
22 | COCCN(C)C(=O)[C@H](CCc1ccccc1)NC(=O)c1nc(-c2ncccc2C(F)(F)F)n(C2CCCC2)n1 [compound 564] | 982 nM
23 | O=C(C[C@H](CCN1CCCC(F)(F)C1)NC(=O)c1cc(-c2cccnc2Cl)n(C2CCCC2)n1)NC1CCC1 [compound 469, (3S)-3-{[5-(2-chloropyridin-3-yl)-1-cyclopentyl-1H-pyrazol-3-yl]formamido}-N-cyclobutyl-5-(3,3-difluoropiperidin-1-yl)pentanamide] | 133 nM
24 | COc1cccc(OC)c1-c1cc(C(=O)N[C@@H](CCN2CCCCC2)Cc2nnn[nH]2)nn1C1CCCC1 [compound 364, 1-cyclopentyl-5-(2,6-dimethoxyphenyl)-N-[(2S)-4-(piperidin-1-yl)-1-(1H-1,2,3,4-tetrazol-5-yl)butan-2-yl]-1H-pyrazole-3-carboxamide] | 235 nM
25 | O=C(C[C@H](CCN1CCCCC1)NC(=O)c1cc(-c2c(F)cc(F)cc2F)n(C2CCCC2)n1)NC1CCC1 [compound 354, (3S)-N-cyclobutyl-3-{[1-cyclopentyl-5-(2,4,6-trifluorophenyl)-1H-pyrazol-3-yl]formamido}-5-(piperidin-1-yl)pentanamide] | > 10000 nM
26 | CC1(F)CCN(CC[C@@H](CC(=O)O)NC(=O)c2cc(-c3ccccc3C(F)(F)F)n(C3CCCC3)n2)C1 (stereo partly drawn) [compound 609, (3S)-3-({1-cyclopentyl-5-[2-(trifluoromethyl)phenyl]-1H-pyrazol-3-yl}formamido)-5-(3-fluoro-3-methylpyrrolidin-1-yl)pentanoic acid] | 98 nM
27 | CC(F)(F)c1ccccc1-c1cc(C(=O)N[C@@H](CCN2CCC[C@@H](F)C2)CC(=O)O)nn1C1CCCC1 [compound 593, (3S)-3-({1-cyclopentyl-5-[2-(1,1-difluoroethyl)phenyl]-1H-pyrazol-3-yl}formamido)-5-[(3R)-3-fluoropiperidin-1-yl]pentanoic acid] | 79 nM
28 | O=C(N[C@@H](CCN1CCCC(F)(F)C1)Cc1nnc[nH]1)c1cc(-c2ccccc2Cl)n(C2CCCC2)n1 [compound 450, 5-(2-chlorophenyl)-1-cyclopentyl-N-[(2S)-4-(3,3-difluoropiperidin-1-yl)-1-(4H-1,2,4-triazol-3-yl)butan-2-yl]-1H-pyrazole-3-carboxamide] | 30 nM
29 | CC(F)(F)c1ccccc1-c1cc(C(=O)N[C@@H](CCN2CCC(=O)CC2(C)C)CC(=O)O)nn1C1CCCC1 [compound 611, (3S)-3-({1-cyclopentyl-5-[2-(1,1-difluoroethyl)phenyl]-1H-pyrazol-3-yl}formamido)-5-(2,2-dimethyl-4-oxopiperidin-1-yl)pentanoic acid] | 509 nM
